# Measurements published in article PMC5988656, “Phase I studies of AZD1208, a proviral integration Moloney virus kinase inhibitor in solid and haematological cancers” (British Journal of Cancer, 2018).
# Experiments:
# p4E-BP1 S65 = test: PD: phosphorylation of 4E-BP1 at S65 by NanoPro immunoassay, AML study; format: in vivo, human
# Method: For AZD1208 PD evaluations, bone marrow aspirates were collected (pretreatment and Cycle 1, Day 1, 2–6 h following administration of AZD1208) and peripheral blood samples were collected (pretreatment on Cycle 1, Day 1; and on-treatment at Cycle 1, Day 1 at 3, 6 and 24 h post-dose; Cycle 1, Day 14 at pre-dose, 3 and 6 h post-dose). Mononuclear cells were isolated, and protein lysates prepared, for subsequent analysis of phosphorylated BAD at S112 by MesoScale Discovery ELISA and phosphorylation of 4E-BP1 at S65 by NanoPro immunoassay [unpublished data: McEachern et al. 2018, manuscript in preparation]. Samples were considered evaluable when the baseline biomarker levels were above the background signal (as defined by buffer-only negative control samples) and within the linear range of assay. Additionally, only blood samples containing detectable blasts were considered for analysis.
# relapsed/refractory AML = test: AML study: antileukaemic activity (IWG response criteria); format: in vivo, human
# Excerpt: The antileukaemic activity in AML was according to the International Working Group (IWG) response criteria for AML.[17] Response criteria were modified such that an M-1 marrow was defined as 1% to ≤5% and a partial response as >5% to 25%.[18]
# [1] = Investigator assessed, 120 mg, n=4
# [2] = Investigator assessed, 240 mg, n=6
# [3] = Investigator assessed, 480 mg, n=6
# [4] = Investigator assessed, 700 mg, n=7
# [5] = Investigator assessed, 900 mg, n=9
# [6] = Modified Cheson criteria, 120 mg, n=4
# [7] = Modified Cheson criteria, 240 mg, n=6
# [8] = Modified Cheson criteria, 480 mg, n=6
# [9] = Modified Cheson criteria, 700 mg, n=7
# [10] = Modified Cheson criteria, 900 mg, n=9
smiles,measurement,setting,value
N[C@@H]1CCCN(c2c(/C=C3\SC(=O)NC3=O)cccc2-c2ccccc2)C1 [AZD1208],Patients with reductions in p4E-BP1 S65,"p4E-BP1 S65; evaluable bone marrow samples, single dose",3/11
same,Patients with decreases in p4E-BP1 S65,p4E-BP1 S65; peripheral blood samples,4/7
same,"Discontinued study treatment due to a lack of therapeutic response, patients",relapsed/refractory AML; 32 eligible patients,59.4%
same,Best response: CR,relapsed/refractory AML; [1],0 n (%)
same,Best response: CRi,relapsed/refractory AML; [1],0 n (%)
same,Best response: Morphologic leukaemia free,relapsed/refractory AML; [1],0 n (%)
same,Best response: Non-response,relapsed/refractory AML; [1],3 (75.0) n (%)
same,Best response: Partial remission,relapsed/refractory AML; [1],0 n (%)
same,Best response: CR,relapsed/refractory AML; [2],0 n (%)
same,Best response: CRi,relapsed/refractory AML; [2],0 n (%)
same,Best response: Morphologic leukaemia free,relapsed/refractory AML; [2],0 n (%)
same,Best response: Non-response,relapsed/refractory AML; [2],3 (50.0) n (%)
same,Best response: Partial remission,relapsed/refractory AML; [2],0 n (%)
same,Best response: CR,relapsed/refractory AML; [3],0 n (%)
same,Best response: CRi,relapsed/refractory AML; [3],0 n (%)
same,Best response: Morphologic leukaemia free,relapsed/refractory AML; [3],0 n (%)
same,Best response: Non-response,relapsed/refractory AML; [3],3 (50.0) n (%)
same,Best response: Partial remission,relapsed/refractory AML; [3],0 n (%)
same,Best response: CR,relapsed/refractory AML; [4],0 n (%)
same,Best response: CRi,relapsed/refractory AML; [4],0 n (%)
same,Best response: Morphologic leukaemia free,relapsed/refractory AML; [4],0 n (%)
same,Best response: Non-response,relapsed/refractory AML; [4],1 (14.3) n (%)
same,Best response: Partial remission,relapsed/refractory AML; [4],0 n (%)
same,Best response: CR,relapsed/refractory AML; [5],0 n (%)
same,Best response: CRi,relapsed/refractory AML; [5],0 n (%)
same,Best response: Morphologic leukaemia free,relapsed/refractory AML; [5],0 n (%)
same,Best response: Non-response,relapsed/refractory AML; [5],2 (22.2) n (%)
same,Best response: Partial remission,relapsed/refractory AML; [5],0 n (%)
same,Best response: CR,relapsed/refractory AML; [6],0 n (%)
same,Best response: CRi,relapsed/refractory AML; [6],0 n (%)
same,Best response: Morphologic leukaemia free,relapsed/refractory AML; [6],0 n (%)
same,Best response: Non-response,relapsed/refractory AML; [6],4 (100) n (%)
same,Best response: Partial remission,relapsed/refractory AML; [6],0 n (%)
same,Best response: CR,relapsed/refractory AML; [7],0 n (%)
same,Best response: CRi,relapsed/refractory AML; [7],0 n (%)
same,Best response: Morphologic leukaemia free,relapsed/refractory AML; [7],0 n (%)
same,Best response: Non-response,relapsed/refractory AML; [7],6 (100) n (%)
same,Best response: Partial remission,relapsed/refractory AML; [7],0 n (%)
same,Best response: CR,relapsed/refractory AML; [8],0 n (%)
same,Best response: CRi,relapsed/refractory AML; [8],0 n (%)
same,Best response: Morphologic leukaemia free,relapsed/refractory AML; [8],0 n (%)
same,Best response: Non-response,relapsed/refractory AML; [8],6 (100) n (%)
same,Best response: Partial remission,relapsed/refractory AML; [8],0 n (%)
same,Best response: CR,relapsed/refractory AML; [9],0 n (%)
same,Best response: CRi,relapsed/refractory AML; [9],0 n (%)
same,Best response: Morphologic leukaemia free,relapsed/refractory AML; [9],0 n (%)
same,Best response: Non-response,relapsed/refractory AML; [9],7 (100) n (%)
same,Best response: Partial remission,relapsed/refractory AML; [9],0 n (%)
same,Best response: CR,relapsed/refractory AML; [10],0 n (%)
same,Best response: CRi,relapsed/refractory AML; [10],0 n (%)
same,Best response: Morphologic leukaemia free,relapsed/refractory AML; [10],0 n (%)
same,Best response: Non-response,relapsed/refractory AML; [10],9 (100) n (%)
same,Best response: Partial remission,relapsed/refractory AML; [10],0 n (%)
same,Clinical responses according to IWG criteria,relapsed/refractory AML; all doses,no clinical responses
